Test [1] relates to Msm ptet_clpP2. The format is cell-based, Mycobacterium smegmatis. To be noted: for growth of strain: sub-MIC concentration.
For test [2], the target named is T1, Mtb ClpP1P2 (Mycobacterium tuberculosis, UniProt P9WPC3+P9WPC5). The format is biochemical. As to conditions: for cleavage by ClpP1P2 (in words): activator present.
Test [3] concerns the target ClpC1 ATPase (Mycobacterium tuberculosis, UniProt P9WPC9). It is filed as biochemical.
For test [4], the target named is T1, Mtb ClpP1P2. In words: biochemical. It is filed as biochemical.
Test [5] has as its target T1, Mtb ClpP1P2. It is filed as biochemical.
Test [6] has as its target T1, Mtb ClpP1P2. The format is biochemical. As to conditions: 10 best substrates each with Met, Leu, Phe, Ala at P1; library screening.
Where [7] appears, read: low concentration of ATc (ClpP2 partially depleted).
Where [8] appears, read: substance is the substrate, Z-Gly-Gly-Leu-amc = 100.
Where [9] appears, read: Peptide Derivatives (1 mM), peptidase activity with Z-Gly-Gly-Leu-amc, Z-Leu-Leu-aldehyde 100.0.
Setting [10] is: Peptide Aldehydes (0.5 mM), peptidase activity with Z-Gly-Gly-Leu-amc, maximal activation by Z-Leu-Nle-aldehyde taken as 100%.

“Also recorded” adds a separate entry of the source. Like-named read-outs stand apart in the source and are kept apart here. Starred links: 1 amine or outer side, 2 acyl side, 3 side chain; linkers in the order of their positions; H or OH if unused. Non-standard residues stand in square brackets, D forms with d. No end group written: not given here. *: point of attachment. Dpa(Dnp) = O=C([C@H](CNc1ccc([N+](=O)[O-])cc1[N+](=O)[O-])N[*:1])[*:2]; Mca = COc1ccc2c(CC(=O)*)cc(=O)oc2c1; Suc = O=C(CCC(=O)[*:2])[*:1]; Nle = CCCC[C@H](N)C(=O)O; Cbz = O=C(OCc1ccccc1)*; amc = not defined here

Chain of ClpC1 ATPase (P9WPC9 whole entry): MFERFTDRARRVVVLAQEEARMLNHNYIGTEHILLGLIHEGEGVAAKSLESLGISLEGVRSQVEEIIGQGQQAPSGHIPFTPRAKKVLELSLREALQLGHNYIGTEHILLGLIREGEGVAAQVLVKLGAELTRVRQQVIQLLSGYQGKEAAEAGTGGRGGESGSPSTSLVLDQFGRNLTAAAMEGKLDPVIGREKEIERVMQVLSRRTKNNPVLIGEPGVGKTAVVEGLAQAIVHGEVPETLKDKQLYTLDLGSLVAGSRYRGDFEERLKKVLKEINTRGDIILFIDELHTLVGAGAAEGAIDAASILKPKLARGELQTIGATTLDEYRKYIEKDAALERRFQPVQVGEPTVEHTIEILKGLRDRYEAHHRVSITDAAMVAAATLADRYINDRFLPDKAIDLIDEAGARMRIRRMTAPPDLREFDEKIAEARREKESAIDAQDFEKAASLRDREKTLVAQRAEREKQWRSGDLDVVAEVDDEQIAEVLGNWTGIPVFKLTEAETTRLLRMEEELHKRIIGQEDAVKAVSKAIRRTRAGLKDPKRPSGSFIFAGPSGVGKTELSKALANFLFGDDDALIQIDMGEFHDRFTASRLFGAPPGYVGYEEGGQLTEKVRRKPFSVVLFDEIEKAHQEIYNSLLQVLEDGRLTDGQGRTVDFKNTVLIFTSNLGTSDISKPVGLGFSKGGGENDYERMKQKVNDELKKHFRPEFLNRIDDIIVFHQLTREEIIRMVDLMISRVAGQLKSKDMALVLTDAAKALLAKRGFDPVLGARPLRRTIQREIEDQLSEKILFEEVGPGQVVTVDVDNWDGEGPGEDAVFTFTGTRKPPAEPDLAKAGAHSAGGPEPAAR

Consider `[H]/N=C(/N)N[C@H]1[C@H](O)[C@@H](O)[C@H](O[C@@H]2O[C@@H](C)[C@](O)(C=O)[C@H]2O[C@@H]2O[C@@H](CO)[C@H](O)[C@@H](O)[C@@H]2NC)[C@@H](N/C(N)=N\[H])[C@@H]1O` [streptomycin], for which the growth of strain result in test [1] (high concentration of ATc) is recorded as “no effect on growth”; in test [1] (setting [7]), “significantly inhibited the growth”.
In the case of Z-Gly-Gly-Arg-amc, the “RELATIVE RATES OF HYDROLYSIS (%)” value in test [2] (setting [8]) is on record as 0.55%.
With `NCC[C@H](O)C(=O)N[C@@H]1C[C@H](N)[C@@H](O[C@H]2O[C@H](CN)[C@@H](O)[C@H](O)[C@H]2O)[C@H](O)[C@H]1O[C@H]1O[C@H](CO)[C@@H](O)[C@H](N)[C@H]1O` [amikacin], the growth of strain result is “no effect on growth” in test [1] (high concentration of ATc) and “significantly inhibited the growth” in test [1] (setting [7]).
`CC(C)C[C@H](NC(=O)[C@H](CC(C)C)NC(=O)OCc1ccccc1)C(=O)O` [Z-Leu-Leu]: in test [3], the “effect on ClpC1 ATPase activity (in words)” value is recorded as “did not influence”. The compound further showed an equilibrium dissociation constant (Kd) in test [4] of 2.2 mM. The “RELATIVE ACTIVITY (%)” value in test [4] (Active enzyme diluted (200x) without activator, then activator re-added) turned out to be 96.0%; in test [4] (Active enzyme diluted (200x), with activator), 100.0%; in test [4] (Active enzyme diluted (200x), without activator) it was 1.2%; in test [4] (setting [9]), 18.5%. Moreover, the “stimulation of ClpP1P2 activity (in words)” value (“stimulation” for short) in test [4] (against Z-Gly-Gly-Leu-AMC) is on record as “could also activate ClpP1P2”.
Z-Leu-Nle-aldehyde: the “RELATIVE ACTIVITY (%)” value in test [4] (setting [10]) amounted to 100.0%.
For Z-Leu-Leu-Arg-amc, the “RELATIVE RATES OF HYDROLYSIS (%)” value in test [2] (setting [8]) is given as 0.25%.
Take Cbz-Val-Phe-aldehyde: the “RELATIVE ACTIVITY (%)” value in test [4] (setting [10]) turned out to be 1.9%. Moreover, in test [4] (against Z-Gly-Gly-Leu-AMC), the “stimulation” value is on record as “did not show any stimulatory capacity”.
For the compound `Cc1cc(=O)oc2cc(NC(=O)[C@@H](N)CC(C)C)ccc12` [Leu-amc], the “RELATIVE RATES OF HYDROLYSIS (%)” value in test [2] is recorded as 0.36%.
Turning to Cbz-AP[Nle]D-aldehyde, the “RELATIVE ACTIVITY (%)” value in test [4] (setting [10]) was found to be 0.8%.
On to “Suc-Leu-Leu-Val-Tyr-amc (Suc-LLVY-amc; reading uncertain)”, for which the “RELATIVE RATES OF HYDROLYSIS (%)” value in test [2] (setting [8]) worked out at 0.8%.
As to Z-Leu-Leu-Leu-amc, in test [2] (setting [8]), the “RELATIVE RATES OF HYDROLYSIS (%)” value turned out to be 0.15%.
As to Z-Gly-Gly-Leu-amc, the “RELATIVE RATES OF HYDROLYSIS (%)” value in test [2] (setting [8]) stood at 100.0%.
Suc-Leu-Tyr-amc: the “RELATIVE RATES OF HYDROLYSIS (%)” value in test [2] (setting [8]) turned out to be 11.5%.
Still for that read-out and setting: next, Z-Ala-Ala-Ala-amc: 3.6%.
Still for that read-out and setting: for Z-Leu-Leu-Glu-amc the value was 0.35%.
For the compound Cbz-Gly-Leu-Leu, the “stimulation” value in test [4] (against Z-Gly-Gly-Leu-AMC) is on record as “much smaller stimulation”.
As to Z-Phe-Val-Arg-amc, the “RELATIVE RATES OF HYDROLYSIS (%)” value in test [2] (setting [8]) was 0.18%.
Regarding “Mca-GHQQYAMK-Dpa(Dnp)-amide (Mca-GHQQYAMK[Dpa(Dnp)]-NH2)”, in test [2] (substance is the substrate), the “cleavage by ClpP1P2 (in words)” value is reported as “could cleave”.
On to `CC(C)C[C@@H](CO)NC(=O)OCc1ccccc1` [Z-Leu-alcohol], for which the “RELATIVE ACTIVITY (%)” value in test [4] is 2.4%.
On to `O=c1oc(Cl)c(Cl)c2ccccc12` [dichloroisocoumarin], for which, in test [5], the “inhibition of ClpP1P2 activity (in words)” value is on record as “sensitive; also recorded: completely inhibit”.
Regarding “Suc-Ala-Ala-Pro-Ala-amc (Suc-AAPA-amc; reading uncertain)”, in test [2] (setting [8]), the “RELATIVE RATES OF HYDROLYSIS (%)” value came out at 0.08%.
On to Z-Gly-Leu, for which the “RELATIVE ACTIVITY (%)” value in test [4] (setting [9]) came to 4.8%. Also, the “stimulation” value in test [4] (against Z-Gly-Gly-Leu-AMC) was “much smaller stimulation”.
For the compound `Cc1cc(=O)oc2cc(NC(=O)C(C)N)ccc12` (stereo not drawn) [Ala-amc], the “RELATIVE RATES OF HYDROLYSIS (%)” value in test [2] is reported as 0.78%.
As to Z-Pro-Nlee-Asp-aldehyde, the “RELATIVE ACTIVITY (%)” value in test [4] (setting [10]) turned out to be 1.2%. For the same compound, in test [4] (against Z-Gly-Gly-Leu-AMC), the “stimulation” value is “did not show any stimulatory capacity”.
In the case of “Mca-GNTQFKRR-Dpa(Dnp)-amide (Mca-GNTQFKRR[Dpa(Dnp)]-NH2)”, the “cleavage by ClpP1P2 (in words)” value in test [2] (substance is the substrate) is on record as “could cleave”.
Turning to `Oc1c(Cl)cc(Cl)c(Cl)c1Cc1c(O)c(Cl)cc(Cl)c1Cl` [hexachlorophene], the “effect on ClpC1 ATPase activity (in words)” value in test [3] is reported as “inhibits”. For the same compound, the “concentration at which the inhibitor works” value in test [3] (inhibition of ClpC1 ATPase activity) lay in the range of 5 to 10 mM.
For Z-Leu-Leu-alcohol, the “RELATIVE ACTIVITY (%)” value in test [4] (setting [9]) amounted to 17.6%. For the same compound, the “stimulation” value in test [4] (against Z-Gly-Gly-Leu-AMC) is “could also activate ClpP1P2”.
For the compound “Mca-GNQQYKMK-Dpa(Dnp)-amide (Mca-GNQQYKMK[Dpa(Dnp)]-NH2)”, the “cleavage by ClpP1P2 (in words)” value in test [2] (substance is the substrate) is on record as “could cleave”.
The same measure, in the same setting: for “Mca-KKPTPIQLN-Dpa(Dnp)-amide (Mca-KKPTPIQLN[Dpa(Dnp)]-NH2)” the value was “could cleave”.
Take Ala-Ala-Phe-amc: the “RELATIVE RATES OF HYDROLYSIS (%)” value in test [2] (setting [8]) was 87.0%.
The same measure, in the same setting: next, Ac-Nle-Pro-Nle-Asp-amc: 36.0%; Z-Leu-Leu-amc: 4.7%.
For `Cc1cc(=O)oc2cc(NC(=O)C(N)Cc3ccccc3)ccc12` (stereo not drawn) [Phe-amc], in test [2], the “RELATIVE RATES OF HYDROLYSIS (%)” value is 0.26%.
As to “N-acetyl-Pro-Lys-Met-aminomethylcoumarin [PKM]”, the “Norm RFU” value in test [6] is reported as 1497.
Take “Suc-Ala-Leu-Pro-Phe-amc (Suc-ALPF-amc; reading uncertain)”: in test [2] (setting [8]), the “RELATIVE RATES OF HYDROLYSIS (%)” value is given as 0.12%.
On to Z-Leu-Leu-leucinal, for which the “stimulation” value in test [4] (against Z-Gly-Gly-Leu-AMC) was “significantly less active”.
Take Suc-Ala-Ala-Phe-amc: the “RELATIVE RATES OF HYDROLYSIS (%)” value in test [2] (setting [8]) is on record as 42.0%.
Turning to `CC(C)C[C@@H](C=O)NC(=O)[C@H](CC(C)C)NC(=O)OCc1ccccc1` [Z-Leu-Leu-aldehyde], the Kd in test [4] worked out at 0.24 mM. Besides, the “RELATIVE ACTIVITY (%)” value in test [4] (setting [10]) worked out at 77.6%; in test [4] (setting [9]), 100.0%. The “stimulation” value in test [4] (against Z-Gly-Gly-Leu-AMC) is listed as “strongest stimulation”.
For the compound `O=C(N[C@H](CO)[C@H](O)c1ccc([N+](=O)[O-])cc1)C(Cl)Cl` [chloramphenicol], in test [1] (sublethal concentration), the “viability, low versus high ATc” value is reported as “no difference in viability”.
Consider Cbz-Phe-Tyr-aldehyde, for which the “RELATIVE ACTIVITY (%)” value in test [4] (setting [10]) stood at 1.3%.
Consider Asp-amc, for which the “RELATIVE RATES OF HYDROLYSIS (%)” value in test [2] was 0.1%.
On to `CC(C)C[C@H](NC(=O)OCc1ccccc1)C(=O)O` [Z-Leu], for which, in test [4], the “RELATIVE ACTIVITY (%)” value was determined as 5.3% and the “stimulation” value is “much smaller stimulation”.
For the compound Cbz-Gly-Gly-Leu, in test [4] (setting [9]), the “RELATIVE ACTIVITY (%)” value is listed as 3.7%.
